{"source": "patent US20220281848A1", "about": "“PYRAZOLE-SUBSTITUTED PYRROLIDINONES AS HERBICIDES” (FMC Corporation, priority 2019, published 2022)", "test_system": "plants", "test": "Test D pre-emergence, other plants of Tables D1 and D3", "assay_type": "in vivo", "conditions": "preemergent, 20 DAA", "procedure": "A formulation containing 50 g/L of the test chemical was prepared by dissolving the active ingredient in a mixture of organic solvents and emulsifier, details of which are provided in the table. This formulation was then mixed with a small, variable amount of acetone to aid dissolution, before addition of a 0.2% v/v aqueous solution of an adjuvant, as the aqueous diluent, to form an aqueous spray solution which contains a predetermined concentration of the active ingredient.\nThis aqueous spray solution was then sprayed onto plants including maize and wheat that had been seed treated with a herbicide safener, after one day's cultivation (for pre-emergence) or after about 12 days' cultivation (for post-emergence). The plants were grown from seeds sown in standard soil, placed in a glasshouse under controlled conditions (at 24/18° C. or 20/16° C., day/night; 16 h light; 65% humidity). After spray application the plants were then grown in a glasshouse under the same conditions and watered twice daily. After 15 d for post-emergence and 20 DAA for pre-emergence the test was evaluated (100=total damage to plant; 0=no damage to plant)."}
{"smiles": "CN1CC(c2cc(C(F)(F)F)n(C)n2)C(C(=O)Nc2ccc(F)cc2F)C1=O", "note": "(racemic) [Compound 6]", "values": [{"measurement": "damage to plant (100=total damage to plant; 0=no damage to plant), ABUTH", "setting": "rate 15", "value": 0}, {"measurement": "damage to plant (100=total damage to plant; 0=no damage to plant), ABUTH", "setting": "rate 30", "value": 0}, {"measurement": "damage to plant (100=total damage to plant; 0=no damage to plant), ABUTH", "setting": "rate 60", "value": 0}, {"measurement": "damage to plant (100=total damage to plant; 0=no damage to plant), ABUTH", "setting": "rate 130", "value": 0}, {"measurement": "damage to plant (100=total damage to plant; 0=no damage to plant), ABUTH", "setting": "rate 250", "value": 0}, {"measurement": "damage to plant (100=total damage to plant; 0=no damage to plant), ABUTH", "setting": "rate 500", "value": 0}, {"measurement": "damage to plant (100=total damage to plant; 0=no damage to plant), AMARE", "setting": "rate 15", "value": 0}, {"measurement": "damage to plant (100=total damage to plant; 0=no damage to plant), AMARE", "setting": "rate 30", "value": 0}, {"measurement": "damage to plant (100=total damage to plant; 0=no damage to plant), AMARE", "setting": "rate 60", "value": 0}, {"measurement": "damage to plant (100=total damage to plant; 0=no damage to plant), AMARE", "setting": "rate 130", "value": 0}, {"measurement": "damage to plant (100=total damage to plant; 0=no damage to plant), AMARE", "setting": "rate 250", "value": 0}, {"measurement": "damage to plant (100=total damage to plant; 0=no damage to plant), AMARE", "setting": "rate 500", "value": 0}, {"measurement": "damage to plant (100=total damage to plant; 0=no damage to plant), BIDPI", "setting": "rate 15", "value": 0}, {"measurement": "damage to plant (100=total damage to plant; 0=no damage to plant), BIDPI", "setting": "rate 30", "value": 0}, {"measurement": "damage to plant (100=total damage to plant; 0=no damage to plant), BIDPI", "setting": "rate 60", "value": 0}, {"measurement": "damage to plant (100=total damage to plant; 0=no damage to plant), BIDPI", "setting": "rate 130", "value": 0}, {"measurement": "damage to plant (100=total damage to plant; 0=no damage to plant), BIDPI", "setting": "rate 250", "value": 0}, {"measurement": "damage to plant (100=total damage to plant; 0=no damage to plant), BIDPI", "setting": "rate 500", "value": 0}, {"measurement": "damage to plant (100=total damage to plant; 0=no damage to plant), BRAPL", "setting": "rate 15", "value": 0}, {"measurement": "damage to plant (100=total damage to plant; 0=no damage to plant), BRAPL", "setting": "rate 30", "value": 50}, {"measurement": "damage to plant (100=total damage to plant; 0=no damage to plant), BRAPL", "setting": "rate 60", "value": 60}, {"measurement": "damage to plant (100=total damage to plant; 0=no damage to plant), BRAPL", "setting": "rate 130", "value": 80}, {"measurement": "damage to plant (100=total damage to plant; 0=no damage to plant), BRAPL", "setting": "rate 250", "value": 80}, {"measurement": "damage to plant (100=total damage to plant; 0=no damage to plant), BRAPL", "setting": "rate 500", "value": 90}, {"measurement": "damage to plant (100=total damage to plant; 0=no damage to plant), CYPES", "setting": "rate 15", "value": 0}, {"measurement": "damage to plant (100=total damage to plant; 0=no damage to plant), CYPES", "setting": "rate 30", "value": 0}, {"measurement": "damage to plant (100=total damage to plant; 0=no damage to plant), CYPES", "setting": "rate 60", "value": 0}, {"measurement": "damage to plant (100=total damage to plant; 0=no damage to plant), CYPES", "setting": "rate 130", "value": 0}, {"measurement": "damage to plant (100=total damage to plant; 0=no damage to plant), CYPES", "setting": "rate 250", "value": 10}, {"measurement": "damage to plant (100=total damage to plant; 0=no damage to plant), CYPES", "setting": "rate 500", "value": 80}, {"measurement": "damage to plant (100=total damage to plant; 0=no damage to plant), DIGSA", "setting": "rate 15", "value": 0}, {"measurement": "damage to plant (100=total damage to plant; 0=no damage to plant), DIGSA", "setting": "rate 30", "value": 30}, {"measurement": "damage to plant (100=total damage to plant; 0=no damage to plant), DIGSA", "setting": "rate 60", "value": 90}, {"measurement": "damage to plant (100=total damage to plant; 0=no damage to plant), DIGSA", "setting": "rate 130", "value": 90}, {"measurement": "damage to plant (100=total damage to plant; 0=no damage to plant), DIGSA", "setting": "rate 250", "value": 90}, {"measurement": "damage to plant (100=total damage to plant; 0=no damage to plant), DIGSA", "setting": "rate 500", "value": 100}, {"measurement": "damage to plant (100=total damage to plant; 0=no damage to plant), ECHCG", "setting": "rate 15", "value": 0}, {"measurement": "damage to plant (100=total damage to plant; 0=no damage to plant), ECHCG", "setting": "rate 30", "value": 20}, {"measurement": "damage to plant (100=total damage to plant; 0=no damage to plant), ECHCG", "setting": "rate 60", "value": 20}, {"measurement": "damage to plant (100=total damage to plant; 0=no damage to plant), ECHCG", "setting": "rate 130", "value": 80}, {"measurement": "damage to plant (100=total damage to plant; 0=no damage to plant), ECHCG", "setting": "rate 250", "value": 90}, {"measurement": "damage to plant (100=total damage to plant; 0=no damage to plant), ECHCG", "setting": "rate 500", "value": 100}, {"measurement": "damage to plant (100=total damage to plant; 0=no damage to plant), ELEIN", "setting": "rate 15", "value": 0}, {"measurement": "damage to plant (100=total damage to plant; 0=no damage to plant), ELEIN", "setting": "rate 30", "value": 0}, {"measurement": "damage to plant (100=total damage to plant; 0=no damage to plant), ELEIN", "setting": "rate 60", "value": 0}, {"measurement": "damage to plant (100=total damage to plant; 0=no damage to plant), ELEIN", "setting": "rate 130", "value": 0}, {"measurement": "damage to plant (100=total damage to plant; 0=no damage to plant), ELEIN", "setting": "rate 250", "value": 0}, {"measurement": "damage to plant (100=total damage to plant; 0=no damage to plant), ELEIN", "setting": "rate 500", "value": 0}, {"measurement": "damage to plant (100=total damage to plant; 0=no damage to plant), EPHHL", "setting": "rate 15", "value": 0}, {"measurement": "damage to plant (100=total damage to plant; 0=no damage to plant), EPHHL", "setting": "rate 30", "value": 0}, {"measurement": "damage to plant (100=total damage to plant; 0=no damage to plant), EPHHL", "setting": "rate 60", "value": 0}, {"measurement": "damage to plant (100=total damage to plant; 0=no damage to plant), EPHHL", "setting": "rate 130", "value": 0}, {"measurement": "damage to plant (100=total damage to plant; 0=no damage to plant), EPHHL", "setting": "rate 250", "value": 0}, {"measurement": "damage to plant (100=total damage to plant; 0=no damage to plant), EPHHL", "setting": "rate 500", "value": 0}, {"measurement": "damage to plant (100=total damage to plant; 0=no damage to plant), GLXMA", "setting": "rate 15", "value": 0}, {"measurement": "damage to plant (100=total damage to plant; 0=no damage to plant), GLXMA", "setting": "rate 30", "value": 0}, {"measurement": "damage to plant (100=total damage to plant; 0=no damage to plant), GLXMA", "setting": "rate 60", "value": 0}, {"measurement": "damage to plant (100=total damage to plant; 0=no damage to plant), GLXMA", "setting": "rate 130", "value": 0}, {"measurement": "damage to plant (100=total damage to plant; 0=no damage to plant), GLXMA", "setting": "rate 250", "value": 0}, {"measurement": "damage to plant (100=total damage to plant; 0=no damage to plant), GLXMA", "setting": "rate 500", "value": 0}, {"measurement": "damage to plant (100=total damage to plant; 0=no damage to plant), IPOHE", "setting": "rate 15", "value": 0}, {"measurement": "damage to plant (100=total damage to plant; 0=no damage to plant), IPOHE", "setting": "rate 30", "value": 0}, {"measurement": "damage to plant (100=total damage to plant; 0=no damage to plant), IPOHE", "setting": "rate 60", "value": 0}, {"measurement": "damage to plant (100=total damage to plant; 0=no damage to plant), IPOHE", "setting": "rate 130", "value": 0}, {"measurement": "damage to plant (100=total damage to plant; 0=no damage to plant), IPOHE", "setting": "rate 250", "value": 0}, {"measurement": "damage to plant (100=total damage to plant; 0=no damage to plant), IPOHE", "setting": "rate 500", "value": 0}, {"measurement": "damage to plant (100=total damage to plant; 0=no damage to plant), ORYSA", "setting": "rate 15", "value": 0}, {"measurement": "damage to plant (100=total damage to plant; 0=no damage to plant), ORYSA", "setting": "rate 30", "value": 0}, {"measurement": "damage to plant (100=total damage to plant; 0=no damage to plant), ORYSA", "setting": "rate 60", "value": 0}, {"measurement": "damage to plant (100=total damage to plant; 0=no damage to plant), ORYSA", "setting": "rate 130", "value": 0}, {"measurement": "damage to plant (100=total damage to plant; 0=no damage to plant), ORYSA", "setting": "rate 250", "value": 0}, {"measurement": "damage to plant (100=total damage to plant; 0=no damage to plant), ORYSA", "setting": "rate 500", "value": 0}, {"measurement": "damage to plant (100=total damage to plant; 0=no damage to plant), PANMI", "setting": "rate 15", "value": 0}, {"measurement": "damage to plant (100=total damage to plant; 0=no damage to plant), PANMI", "setting": "rate 30", "value": 0}, {"measurement": "damage to plant (100=total damage to plant; 0=no damage to plant), PANMI", "setting": "rate 60", "value": 0}, {"measurement": "damage to plant (100=total damage to plant; 0=no damage to plant), PANMI", "setting": "rate 130", "value": 0}, {"measurement": "damage to plant (100=total damage to plant; 0=no damage to plant), PANMI", "setting": "rate 250", "value": 0}, {"measurement": "damage to plant (100=total damage to plant; 0=no damage to plant), PANMI", "setting": "rate 500", "value": 0}, {"measurement": "damage to plant (100=total damage to plant; 0=no damage to plant), SETFA", "setting": "rate 15", "value": 0}, {"measurement": "damage to plant (100=total damage to plant; 0=no damage to plant), SETFA", "setting": "rate 30", "value": 0}, {"measurement": "damage to plant (100=total damage to plant; 0=no damage to plant), SETFA", "setting": "rate 60", "value": 10}, {"measurement": "damage to plant (100=total damage to plant; 0=no damage to plant), SETFA", "setting": "rate 130", "value": 80}, {"measurement": "damage to plant (100=total damage to plant; 0=no damage to plant), SETFA", "setting": "rate 250", "value": 90}, {"measurement": "damage to plant (100=total damage to plant; 0=no damage to plant), SETFA", "setting": "rate 500", "value": 90}, {"measurement": "damage to plant (100=total damage to plant; 0=no damage to plant), SORVU", "setting": "rate 15", "value": 0}, {"measurement": "damage to plant (100=total damage to plant; 0=no damage to plant), SORVU", "setting": "rate 30", "value": 0}, {"measurement": "damage to plant (100=total damage to plant; 0=no damage to plant), SORVU", "setting": "rate 60", "value": 0}, {"measurement": "damage to plant (100=total damage to plant; 0=no damage to plant), SORVU", "setting": "rate 130", "value": 0}, {"measurement": "damage to plant (100=total damage to plant; 0=no damage to plant), SORVU", "setting": "rate 250", "value": 0}, {"measurement": "damage to plant (100=total damage to plant; 0=no damage to plant), SORVU", "setting": "rate 500", "value": 0}]}
